This passage reports Ki results from BindingDB's records for PubMed 3012067 (Johns Hopkins University, 1986).

Where “and” joins values, the source holds several entries; their conditions need not be identical. Equal values may be shown once.

The term Ki denotes the equilibrium dissociation constant of an inhibitor or competing ligand from its target.

Sequence of Voltage-dependent L-type calcium channel subunit alpha-1C (P22002 whole entry): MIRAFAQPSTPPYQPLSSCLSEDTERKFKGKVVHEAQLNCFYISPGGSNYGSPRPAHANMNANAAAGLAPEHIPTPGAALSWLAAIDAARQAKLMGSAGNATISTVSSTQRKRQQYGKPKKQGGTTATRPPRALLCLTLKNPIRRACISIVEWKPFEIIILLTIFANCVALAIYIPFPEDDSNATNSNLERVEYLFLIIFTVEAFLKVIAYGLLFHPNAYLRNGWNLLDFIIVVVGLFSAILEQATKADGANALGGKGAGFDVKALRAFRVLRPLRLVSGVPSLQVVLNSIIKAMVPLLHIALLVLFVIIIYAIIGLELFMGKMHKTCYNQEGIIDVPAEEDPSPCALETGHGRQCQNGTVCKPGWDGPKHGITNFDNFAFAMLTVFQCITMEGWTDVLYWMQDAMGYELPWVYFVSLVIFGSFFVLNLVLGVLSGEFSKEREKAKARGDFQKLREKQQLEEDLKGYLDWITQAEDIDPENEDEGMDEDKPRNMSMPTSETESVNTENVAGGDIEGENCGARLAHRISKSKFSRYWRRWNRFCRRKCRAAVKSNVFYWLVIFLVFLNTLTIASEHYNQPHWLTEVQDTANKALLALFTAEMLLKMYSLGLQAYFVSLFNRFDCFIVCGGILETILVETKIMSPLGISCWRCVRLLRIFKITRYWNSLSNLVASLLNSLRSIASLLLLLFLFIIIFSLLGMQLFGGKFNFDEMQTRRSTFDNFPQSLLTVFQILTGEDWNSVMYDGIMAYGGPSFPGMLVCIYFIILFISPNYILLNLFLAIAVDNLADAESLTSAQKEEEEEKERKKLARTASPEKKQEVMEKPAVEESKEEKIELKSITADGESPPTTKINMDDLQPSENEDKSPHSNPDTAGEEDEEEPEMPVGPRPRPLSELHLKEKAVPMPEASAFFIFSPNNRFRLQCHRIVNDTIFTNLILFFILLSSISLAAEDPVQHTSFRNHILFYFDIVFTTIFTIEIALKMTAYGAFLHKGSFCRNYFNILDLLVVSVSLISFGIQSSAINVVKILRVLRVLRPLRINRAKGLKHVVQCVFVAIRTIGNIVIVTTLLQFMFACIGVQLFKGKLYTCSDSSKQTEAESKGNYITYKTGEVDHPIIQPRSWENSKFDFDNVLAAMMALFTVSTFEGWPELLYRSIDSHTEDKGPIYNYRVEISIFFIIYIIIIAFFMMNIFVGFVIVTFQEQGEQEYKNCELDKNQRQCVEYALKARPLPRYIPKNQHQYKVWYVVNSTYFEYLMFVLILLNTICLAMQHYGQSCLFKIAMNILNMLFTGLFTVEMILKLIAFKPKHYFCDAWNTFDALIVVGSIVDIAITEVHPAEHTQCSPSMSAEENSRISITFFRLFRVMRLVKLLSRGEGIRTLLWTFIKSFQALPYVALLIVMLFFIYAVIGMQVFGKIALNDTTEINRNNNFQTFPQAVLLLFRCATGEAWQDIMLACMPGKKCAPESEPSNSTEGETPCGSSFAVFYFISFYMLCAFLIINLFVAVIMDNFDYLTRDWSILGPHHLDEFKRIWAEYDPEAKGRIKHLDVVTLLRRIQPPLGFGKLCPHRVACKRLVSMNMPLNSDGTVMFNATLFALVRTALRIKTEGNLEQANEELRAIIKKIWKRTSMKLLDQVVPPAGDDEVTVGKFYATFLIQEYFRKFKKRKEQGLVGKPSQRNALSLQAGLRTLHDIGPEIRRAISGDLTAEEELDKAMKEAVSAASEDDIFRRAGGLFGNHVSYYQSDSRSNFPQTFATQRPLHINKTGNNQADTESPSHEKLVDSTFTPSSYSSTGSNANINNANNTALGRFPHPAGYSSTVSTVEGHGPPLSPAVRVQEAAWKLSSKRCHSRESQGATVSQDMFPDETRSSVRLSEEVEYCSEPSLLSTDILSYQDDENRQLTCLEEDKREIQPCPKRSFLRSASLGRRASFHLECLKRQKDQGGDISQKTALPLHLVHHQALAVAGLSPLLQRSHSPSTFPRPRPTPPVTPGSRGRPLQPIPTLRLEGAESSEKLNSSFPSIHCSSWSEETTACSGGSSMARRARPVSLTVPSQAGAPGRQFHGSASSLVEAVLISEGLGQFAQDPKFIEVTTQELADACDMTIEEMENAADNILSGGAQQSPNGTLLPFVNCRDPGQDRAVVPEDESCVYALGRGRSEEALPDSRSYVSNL

This assay addresses Voltage-dependent L-type calcium channel subunit alpha-1C (Rattus norvegicus, UniProt P22002).
With `Cc1cccc(C)c1NC(=O)CN1CCN(CCCC(c2ccc(F)cc2)c2ccc(F)cc2)CC1`, the inhibitory constant (Ki) was 305 nM and 188 nM.
To `CN(C)C(=O)C(CCN1CCC(O)(c2ccc(Cl)cc2)CC1)(c1ccccc1)c1ccccc1` belongs 205 nM and 127 nM.
To `COc1ccc(CCN(C)CCCC2(c3ccc(OC)c(OC)c3)S(=O)(=O)CCCS2(=O)=O)cc1OC` belongs 1440 nM and 416 nM; to `CC(Cc1ccccc1)NCCC(c1ccccc1)c1ccccc1` (centres undefined), 384 nM and 320 nM; to `CC(C)COC[C@H](CN(Cc1ccccc1)c1ccccc1)N1CCCC1`, 547 nM and 241 nM.
In the case of `COC(=O)C1=C(C)N=C(C)C([N+](=O)[O-])C1c1ccccc1C(F)(F)F` (centres undefined) [Bay k 8644], the inhibitory constant (Ki) is 1110 nM.
To `COc1ccc(CCN(C)CCCC(C#N)(c2cc(OC)c(OC)c(OC)c2)C(C)C)cc1OC` (centres undefined) [GALLOPAMIL] belongs 21.4 nM and 22.5 nM; to `CCOP(=O)(Cc1ccc(-c2nc3ccccc3s2)cc1)OCC` [NSC_53421], 1690 nM and 442 nM.
To `CCOC(=O)C1=C(C)N=C(C)C(C(=O)OCC)C1c1ccccc1C(F)(F)F` (centres undefined) [NSC_168089] belongs 268 nM.
